Laboratory results as given in US11254686B1 (Corvus Pharmaceuticals, Inc., priority 2017, dated 2022).

Assays:
adenosine A2B receptor = adenosine A2B receptor (Homo sapiens (Human), UniProt P29275); assay: Adenosine receptor activity assay (Table 1), A2B activity; assay type: biochemical; settings: for Ratio: A2A activity to A2B activity (A2A/A2B); for IC50: read-out: Ave A2B cAMP IC50
adenosine A2A receptor = adenosine A2A receptor (Homo sapiens (Human), UniProt P29274); assay: Adenosine receptor activity assay (Table 1), A2A activity; assay type: biochemical; settings: read-out: Ave A2A cAMP IC50
Sequence of adenosine A2A receptor (P29274 whole entry): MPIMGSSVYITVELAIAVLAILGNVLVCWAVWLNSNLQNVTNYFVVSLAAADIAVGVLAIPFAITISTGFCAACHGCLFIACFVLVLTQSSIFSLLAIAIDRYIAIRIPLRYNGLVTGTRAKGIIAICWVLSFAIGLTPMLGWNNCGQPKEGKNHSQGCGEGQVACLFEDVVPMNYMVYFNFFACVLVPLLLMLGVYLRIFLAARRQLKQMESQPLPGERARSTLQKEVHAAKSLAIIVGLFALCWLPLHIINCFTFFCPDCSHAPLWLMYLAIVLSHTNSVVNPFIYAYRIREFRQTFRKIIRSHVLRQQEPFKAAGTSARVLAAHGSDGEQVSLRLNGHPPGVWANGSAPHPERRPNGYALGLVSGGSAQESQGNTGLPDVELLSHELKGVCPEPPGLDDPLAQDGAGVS

adenosine A1 receptor [1] = target: T1, adenosine A1 receptor (Homo sapiens (Human), UniProt P30542); assay: A1 cAMP IC50 assay (Table 1); assay type: biochemical
T1 sequence (P30542 whole entry): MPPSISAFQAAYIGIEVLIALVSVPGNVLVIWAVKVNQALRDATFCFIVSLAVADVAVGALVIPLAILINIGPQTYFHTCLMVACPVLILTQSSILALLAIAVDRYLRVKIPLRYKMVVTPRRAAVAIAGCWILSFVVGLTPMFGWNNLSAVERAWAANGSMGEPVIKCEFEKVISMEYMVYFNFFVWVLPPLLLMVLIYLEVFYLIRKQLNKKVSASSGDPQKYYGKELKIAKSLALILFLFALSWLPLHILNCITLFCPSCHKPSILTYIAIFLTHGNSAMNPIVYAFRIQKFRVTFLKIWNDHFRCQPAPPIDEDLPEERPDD

adenosine A3 receptor [2] = target: T2, adenosine A3 receptor (Homo sapiens (Human), UniProt P0DMS8); assay: A3 cAMP IC50 assay (Table 1); assay type: biochemical
T2 sequence (P0DMS8 whole entry): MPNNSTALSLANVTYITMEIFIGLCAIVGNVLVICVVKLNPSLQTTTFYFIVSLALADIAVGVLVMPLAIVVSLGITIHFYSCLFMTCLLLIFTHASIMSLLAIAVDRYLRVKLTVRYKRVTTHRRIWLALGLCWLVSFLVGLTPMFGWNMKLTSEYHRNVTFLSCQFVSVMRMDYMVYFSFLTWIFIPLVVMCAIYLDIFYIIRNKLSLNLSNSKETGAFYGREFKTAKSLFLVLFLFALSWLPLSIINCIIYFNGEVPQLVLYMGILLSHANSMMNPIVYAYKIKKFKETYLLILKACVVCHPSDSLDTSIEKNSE

CYP3A4 = CYP3A4 (Homo sapiens (Human), UniProt P08684); assay: CYP450 inhibition at 10 μM, CYP3A4; assay type: in vitro ADME; settings: human, 10 μM, read-out: CYP 450 % INH @ 10 μM
Sequence of CYP3A4 (P08684 whole entry): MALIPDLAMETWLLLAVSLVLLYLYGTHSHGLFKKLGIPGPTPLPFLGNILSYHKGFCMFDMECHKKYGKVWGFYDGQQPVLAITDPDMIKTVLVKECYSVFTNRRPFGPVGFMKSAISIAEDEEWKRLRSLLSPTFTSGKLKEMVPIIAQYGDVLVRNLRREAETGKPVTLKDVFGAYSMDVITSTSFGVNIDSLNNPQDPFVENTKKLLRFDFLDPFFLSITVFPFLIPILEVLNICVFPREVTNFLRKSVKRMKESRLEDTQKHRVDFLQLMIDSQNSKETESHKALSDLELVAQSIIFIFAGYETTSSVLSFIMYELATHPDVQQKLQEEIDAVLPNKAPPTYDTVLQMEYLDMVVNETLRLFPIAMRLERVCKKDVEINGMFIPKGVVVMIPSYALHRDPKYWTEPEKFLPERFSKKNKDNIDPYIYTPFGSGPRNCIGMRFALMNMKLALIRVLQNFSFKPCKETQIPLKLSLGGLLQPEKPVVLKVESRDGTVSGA

CYP2D6 = CYP2D6 (Homo sapiens (Human), UniProt P10635); assay: CYP450 inhibition at 10 μM, CYP2D6; assay type: in vitro ADME; settings: read-out: CYP 450 % INH @ 10 μM
Sequence of CYP2D6 (P10635 whole entry): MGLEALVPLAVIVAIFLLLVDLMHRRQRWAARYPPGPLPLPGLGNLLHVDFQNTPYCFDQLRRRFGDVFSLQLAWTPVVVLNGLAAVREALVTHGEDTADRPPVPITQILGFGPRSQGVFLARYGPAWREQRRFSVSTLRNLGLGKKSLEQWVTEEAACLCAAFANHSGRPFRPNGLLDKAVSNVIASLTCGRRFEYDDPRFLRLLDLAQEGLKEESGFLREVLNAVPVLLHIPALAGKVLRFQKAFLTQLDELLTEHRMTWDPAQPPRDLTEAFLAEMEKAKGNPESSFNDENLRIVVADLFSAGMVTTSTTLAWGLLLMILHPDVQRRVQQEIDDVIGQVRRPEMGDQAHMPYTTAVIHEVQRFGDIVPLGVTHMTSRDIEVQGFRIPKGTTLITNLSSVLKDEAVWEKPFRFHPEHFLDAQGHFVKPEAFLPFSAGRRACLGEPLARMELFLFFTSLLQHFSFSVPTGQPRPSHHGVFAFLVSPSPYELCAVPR

[3] = Liver microsome (LM) intrinsic clearance, rat; assay type: in vitro ADME
[4] = Liver microsome (LM) intrinsic clearance, human; assay type: in vitro ADME
[5] = Hepatocyte (Hep) intrinsic clearance, rat; assay type: in vitro ADME; settings: hepatocytes
[6] = Hepatocyte (Hep) intrinsic clearance, human; assay type: in vitro ADME; settings: hepatocytes
adenosine A1 receptor [7] = target: T1, adenosine A1 receptor; assay: Adenosine receptor activity assay (Table 1), A1 cAMP; assay type: cell-based
adenosine A3 receptor [8] = target: T2, adenosine A3 receptor; assay: Adenosine receptor activity assay (Table 1), A3 cAMP; assay type: cell-based
[9] = Hepatocyte intrinsic clearance, rat; assay type: in vitro ADME; settings: hepatocytes
[10] = Hepatocyte intrinsic clearance, human; assay type: in vitro ADME; settings: hepatocytes

Sequence of adenosine A2B receptor (P29275 whole entry): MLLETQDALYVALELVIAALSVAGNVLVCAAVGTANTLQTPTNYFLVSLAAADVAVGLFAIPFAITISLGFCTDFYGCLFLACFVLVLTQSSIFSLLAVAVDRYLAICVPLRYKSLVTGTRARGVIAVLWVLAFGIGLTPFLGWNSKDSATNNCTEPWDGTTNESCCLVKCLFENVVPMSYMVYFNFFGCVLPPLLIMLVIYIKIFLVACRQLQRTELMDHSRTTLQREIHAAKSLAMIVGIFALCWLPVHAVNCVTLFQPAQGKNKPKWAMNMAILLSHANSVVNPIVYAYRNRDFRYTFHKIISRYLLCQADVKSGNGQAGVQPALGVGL

SMILES	Ratio (adenosine A2B receptor)	IC50 (adenosine A2B receptor) [nM]	IC50 (adenosine A2A receptor) [nM]	IC50 (adenosine A1 receptor [1]) [nM]	IC50 (adenosine A3 receptor [2]) [nM]	inhibition at 10 µM (CYP3A4) [%]	inhibition at 10 µM (CYP2D6) [%]	LM CLint [3] [μL/min/mg/protein]	LM CLint [4] [μL/min/mg/protein]	hepatocyte CLint [5] [µL/min/1e6 cells]	hepatocyte CLint [6] [µL/min/1e6 cells]	IC50 (adenosine A1 receptor [7]) [nM]	IC50 (adenosine A3 receptor [8]) [nM]	hepatocyte CLint [9] [µL/min/1e6 cells]	hepatocyte CLint [10] [µL/min/1e6 cells]
C[C@H](NC(=O)c1nc(N[C@@H](C)c2ccccn2)nc2ccsc12)c1ccccn1 [Example Z54, N—((S)-1-(Pyridin-2-yl)ethyl)-2-(((S)-1-(pyridin-2-yl)ethyl)amino)thieno[3,2-d]pyrimidine-4-carboxamide]	1.42	10 to 50	10 to 50	> 500	50 to 100	38	3	39.84	14.10	126	24.9	–	–	–	–
Cc1cncc(CNc2nc(C(=O)N3CCC3)c3sccc3n2)c1 [Example Z55, Azetidin-1-yl(2-(((5-methylpyridin-3-yl)methyl)amino)thieno[3,2-d]pyrimidin-4-yl)methanone]	127.22	10 to 50	> 500	> 500	> 500	76	19	94.74	63.74	64.7	25.6	–	–	–	–
O=C(c1nc(NCc2cncc(F)c2)nc2ccsc12)N1CC[C@@H](F)C1 [Example Z60, (R)-(2-(((5-Fluoropyridin-3-yl)methyl)amino)thieno[3,2-d]pyrimidin-4-yl)(3-fluoropyrrolidin-1-yl)methanone]	66.23	< 10	100 to 500	> 500	> 500	65	11	46.03	34.26	63.1	22.8	–	–	–	–
O=C(c1nc(NCc2cncc(F)c2)nc2ccsc12)N1CCC1 [Example Z61, Azetidin-1-yl(2-(((5-fluoropyridin-3-yl)methyl)amino)thieno[3,2-d]pyrimidin-4-yl)methanone]	84.42	< 10	100 to 500	> 500	> 500	38	10	44.58	33.16	44.9	15.4	–	–	–	–
O=C(c1nc(NCc2cncc(F)c2)nc2ccsc12)N1CC[C@H](O)C1 [Example Z62, (S)-(2-(((5-Fluoropyridin-3-yl)methyl)amino)thieno[3,2-d]pyrimidin-4-yl)(3-hydroxypyrrolidin-1-yl)methanone]	60.76	10 to 50	> 500	> 500	> 500	34	5	12.51	10.76	25.6	7.12	–	–	–	–
Cc1cc2nc(N[C@@H](C)c3cncc(F)c3)nc(C(=O)N3CC[C@H](O)C3)c2s1 [Example Z249, (2-(((S)-1-(5-Fluoropyridin-3-yl)ethyl)amino)-6-methylthieno[3,2-d]pyrimidin-4-yl)((S)-3-hydroxypyrrolidin-1-yl)methanone]	197.12	< 10	100 to 500	–	–	–	–	–	–	–	–	> 500	> 500	20.9	4.53
Cc1cc2nc(N[C@@H](C)c3cncc(F)c3)nc(C(=O)N3CC(O)C3)c2s1 [Example Z267, (S)-(2-((1-(5-Fluoropyridin-3-yl)ethyl)amino)-6-methylthieno[3,2-d]pyrimidin-4-yl)(3-hydroxyazetidin-1-yl)methanone]	105.81	< 10	50 to 100	–	–	–	–	–	–	–	–	50 to 100	50 to 100	45.9	9.44
Cc1cc2nc(N[C@@H](C)c3cncc(F)c3)nc(C(=O)NC[C@H](C)O)c2s1 [Example Z277, 2-(((S)-1-(5-Fluoropyridin-3-yl)ethyl)amino)-N—((S)-2-hydroxypropyl)-6-methylthieno[3,2-d]pyrimidine-4-carboxamide]	167.29	< 10	100 to 500	–	–	–	–	–	–	–	–	50 to 100	50 to 100	65.9	16.4
Cc1cc2nc(N[C@@H](C)c3cncc(F)c3)nc(C(=O)NC[C@@H](C)O)c2s1 [Example Z278, 2-(((S)-1-(5-Fluoropyridin-3-yl)ethyl)amino)-N—((R)-2-hydroxypropyl)-6-methylthieno[3,2-d]pyrimidine-4-carboxamide]	87.33	< 10	50 to 100	–	–	–	–	–	–	–	–	50 to 100	50 to 100	43.3	14.8

The remaining lines, values ahead:

Ratio (adenosine A2B receptor)	IC50 (adenosine A2B receptor) [nM]	IC50 (adenosine A2A receptor) [nM]	IC50 (adenosine A1 receptor [1]) [nM]	IC50 (adenosine A3 receptor [2]) [nM]	inhibition at 10 µM (CYP3A4) [%]	inhibition at 10 µM (CYP2D6) [%]	LM CLint [3] [μL/min/mg/protein]	LM CLint [4] [μL/min/mg/protein]	hepatocyte CLint [5] [µL/min/1e6 cells]	hepatocyte CLint [6] [µL/min/1e6 cells]	IC50 (adenosine A1 receptor [7]) [nM]	IC50 (adenosine A3 receptor [8]) [nM]	hepatocyte CLint [9] [µL/min/1e6 cells]	hepatocyte CLint [10] [µL/min/1e6 cells]	SMILES
6.64	10 to 50	100 to 500	> 500	> 500	49	7	33.25	51.28	76.2	63.2	–	–	–	–	C[C@H](Nc1nc(C(=O)N2CC(F)(F)C2)c2sccc2n1)c1cccnc1 [Example Z32, (S)-(3,3-Difluoroazetidin-1-yl)(2-((1-(pyridin-3-yl)ethyl)amino)thieno[3,2-d]pyrimidin-4-yl)methanone]
4.99	10 to 50	100 to 500	> 500	> 500	82	22	81.23	53.26	131	23.5	–	–	–	–	C[C@@H]1CCN(C(=O)c2nc(N[C@@H](C)c3cccnc3)nc3ccsc23)C1 [Example Z34, ((R)-3-Methylpyrrolidin-1-yl)(2-(((S)-1-(pyridin-3-yl)ethyl)amino)thieno[3,2-d]pyrimidin-4-yl)methanone]
12.78	10 to 50	100 to 500	> 500	> 500	83	39	71.55	47.64	65.9	24.5	–	–	–	–	C[C@H]1CCN(C(=O)c2nc(N[C@@H](C)c3cccnc3)nc3ccsc23)C1 [Example Z63, ((S)-3-Methylpyrrolidin-1-yl)(2-(((S)-1-(pyridin-3-yl)ethyl)amino)thieno[3,2-d]pyrimidin-4-yl)methanone]
179.59	< 10	100 to 500	–	–	–	–	–	–	–	–	> 500	> 500	23.9	11.9	Cc1cc2nc(N[C@@H](C)c3cncc(F)c3)nc(C(=O)N3CC[C@@H](O)C3)c2s1 [Example Z250, (2-(((S)-1-(5-Fluoropyridin-3-yl)ethyl)amino)-6-methylthieno[3,2-d]pyrimidin-4-yl)((R)-3-hydroxypyrrolidin-1-yl)methanone]
88.64	10 to 50	> 500	–	–	–	–	–	–	–	–	> 500	> 500	18.6	5.45	Cc1cc2nc(N[C@@H](C)c3cccnc3)nc(C(=O)N3CC[C@@H](O)C3)c2s1 [Example Z281, ((R)-3-Hydroxypyrrolidin-1-yl)(6-methyl-2-(((S)-1-(pyridin-3-yl)ethyl)amino)thieno[3,2-d]pyrimidin-4-yl)methanone]
227.82	< 10	> 500	–	–	–	–	–	–	–	–	> 500	> 500	22.6	3.47	Cc1cc2nc(N[C@@H](C)c3cccnc3)nc(C(=O)N3CC[C@H](O)C3)c2s1 [Example Z297, ((S)-3-Hydroxypyrrolidin-1-yl)(6-methyl-2-(((S)-1-(pyridin-3-yl)ethyl)amino)thieno[3,2-d]pyrimidin-4-yl)methanone]
146.28	10 to 50	> 500	–	–	–	–	–	–	–	–	> 500	> 500	25.7	19.5	C[C@H](Nc1nc(C(=O)N2CC[C@H](O)C2)c2sc(C(F)(F)F)cc2n1)c1cccnc1 [Example Z333, ((S)-3-Hydroxypyrrolidin-1-yl)(2-(((S)-1-(pyridin-3-yl)ethyl)amino)-6-(trifluoromethyl)thieno[3,2-d]pyrimidin-4-yl)methanone]
